Biological target: PRMT5/MEP50 (Homo sapiens (Human), UniProt O14744)
Experiment: PRMT5 Biochemical Assay (PRMT5/MEP50 enzyme assay on peptide substrate, 3H-SAM Flashplate)
Details: PRMT5/MEP50 biochemical assay; read-out: Biochemical IC50

Chain of PRMT5/MEP50 (O14744 other isoform, or with tags, fused parts or gaps): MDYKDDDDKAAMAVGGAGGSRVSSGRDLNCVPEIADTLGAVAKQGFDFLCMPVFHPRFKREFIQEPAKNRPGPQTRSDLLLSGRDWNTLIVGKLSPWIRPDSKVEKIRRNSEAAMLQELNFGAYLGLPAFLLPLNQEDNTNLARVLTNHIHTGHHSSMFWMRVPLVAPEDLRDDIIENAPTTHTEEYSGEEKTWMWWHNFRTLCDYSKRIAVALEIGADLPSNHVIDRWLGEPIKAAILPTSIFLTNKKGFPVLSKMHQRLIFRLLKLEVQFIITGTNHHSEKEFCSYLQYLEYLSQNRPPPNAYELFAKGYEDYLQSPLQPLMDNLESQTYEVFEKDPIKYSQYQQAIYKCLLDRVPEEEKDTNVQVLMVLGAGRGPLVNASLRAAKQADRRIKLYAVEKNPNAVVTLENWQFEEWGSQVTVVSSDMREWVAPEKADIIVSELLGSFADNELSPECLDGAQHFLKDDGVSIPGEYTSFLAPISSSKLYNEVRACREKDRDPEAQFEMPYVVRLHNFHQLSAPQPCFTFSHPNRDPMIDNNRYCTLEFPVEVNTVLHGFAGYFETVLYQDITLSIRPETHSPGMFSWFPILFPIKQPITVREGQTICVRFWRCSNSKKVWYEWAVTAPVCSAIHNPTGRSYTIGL
Chain of PRMT5/MEP50 (Q9BQA1 other isoform, or with tags, fused parts or gaps partner): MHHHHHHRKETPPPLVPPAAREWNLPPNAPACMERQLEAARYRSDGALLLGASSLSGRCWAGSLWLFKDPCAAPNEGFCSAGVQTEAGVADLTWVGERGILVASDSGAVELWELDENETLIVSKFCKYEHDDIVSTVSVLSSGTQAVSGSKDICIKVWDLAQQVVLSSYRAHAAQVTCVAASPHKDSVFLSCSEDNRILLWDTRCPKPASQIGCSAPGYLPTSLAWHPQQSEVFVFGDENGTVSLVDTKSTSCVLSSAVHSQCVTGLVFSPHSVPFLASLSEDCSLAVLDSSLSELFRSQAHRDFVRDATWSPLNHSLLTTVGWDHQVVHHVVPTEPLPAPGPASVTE

SMILES | IC50
O=C(NCC(O)CN1CCc2ccccc2C1)c1ccc(-c2ccccn2)cc1 (stereo not drawn) [Compound 13, N-(3-(3,4-dihydroisoquinolin-2(1H)-yl)-2-hydroxypropyl)-4-(pyridin-2-yl)benzamide] | < 100 nM
O=C(NCC(O)CN1CCc2ccccc2C1)c1cccc(N2CCOCC2)c1 (stereo not drawn) [Compound 14, N-(3-(3,4-dihydroisoquinolin-2(1H)-yl)-2-hydroxypropyl)-3-morpholinobenzamide] | < 100 nM
O=C(NC[C@H](O)CN1CCc2ccccc2C1)c1cc(NC2CCNC2)ncn1 (stereo partly drawn) [Compound 209] | < 100 nM
C[C@H]1COCCC1Nc1cccc(C(=O)NC[C@H](O)CN2CCc3ccccc3C2)c1 (stereo partly drawn) [Compound 213] | < 100 nM
Cc1ccc(NC2COC2)cc1C(=O)NCC(O)CN1CCc2ccccc2C1 (stereo not drawn) [Compound 97] | < 100 nM
O=C(NC[C@H](O)CN1CCc2ccccc2C1)c1ccc(OC2CCN(Cc3ccncc3)CC2)cc1 [Compound 331] | < 100 nM
CN(C)CCOc1cccc(C(=O)NCC(O)CN2CCc3ccccc3C2)c1 (stereo not drawn) [Compound 28, N-(3-(3,4-dihydroisoquinolin-2(1H)-yl)-2-hydroxypropyl)-3-(2-(dimethylamino)ethoxy)benzamide] | < 100 nM
O=C(NC[C@H](O)CN1CCc2ccccc2C1)c1ccc2c(c1O)NCCC2 [Compound 328] | 1000 to 10000 nM
C[C@@H]1COCCC1Nc1cccc(C(=O)NC[C@H](O)CN2CCc3ccccc3C2)c1 (stereo partly drawn) [Compound 212] | < 100 nM
O=C(NC[C@H](O)CN1CCc2ccccc2C1)c1cccc(NC2CCOC2)c1 (stereo partly drawn) [Compound 80] | < 100 nM
O=C(NC[C@H](O)CN1CCc2ccccc2C1)c1ccc2c(c1)OCCO2 [Compound 274] | < 100 nM
CN1CCCC(CNc2cc(C(=O)NC[C@H](O)CN3CCc4ccccc4C3)ccn2)C1 (stereo partly drawn) [Compound 264] | < 100 nM
O=C1COc2cc(C(=O)NCC(O)CN3CCc4ccccc4C3)ccc2N1 (stereo not drawn) [Compound 89] | 101 to 1000 nM
NC(=O)CNCCOc1cccc(C(=O)NCC(O)CN2CCc3ccccc3C2)c1 (stereo not drawn) [Compound 222] | < 100 nM
O=C(NCC(O)CN1CCc2ccccc2C1)c1ccc2nccnc2c1 (stereo not drawn) [Compound 85] | 101 to 1000 nM
CC(=O)N1CCC(Oc2cc(C(=O)NC[C@H](O)CN3CCc4ccccc4C3)ccn2)CC1 [Compound 205] | < 100 nM
COc1cc(C(=O)NC[C@H](O)CN2CCc3ccccc3C2)cc(NC2CCC2)n1 [Compound 332] | < 100 nM
O=C(NCC(O)CN1CCc2ccccc2C1)c1cccc(C2CCNC2)c1 (stereo not drawn) [Compound 37] | < 100 nM
Cc1ccc2cc(C(=O)NCC(O)CN3CCc4ccccc4C3)ccc2n1 (stereo not drawn) [Compound 84, N-(3-(3,4-dihydroisoquinolin-2(1H)-yl)-2-hydroxypropyl)-2-methylquinoline-6-carboxamide] | < 100 nM
O=C(NC[C@H](O)CN1CCc2ccccc2C1)c1cc(OC2CCN(CC(F)(F)F)CC2)ncn1 [Compound 285] | 101 to 1000 nM
CS(=O)(=O)N1CC[C@@H](Nc2cccc(C(=O)NC[C@H](O)CN3CCc4ccccc4C3)c2)C1 [Compound 267] | < 100 nM
O=C(NC[C@@H](O)CN1CCc2ccccc2C1)c1cccc(NC2CCOC2)c1 (stereo partly drawn) [Compound 81] | < 100 nM
CN(C)CCOc1cc(C(=O)NC[C@H](O)CN2CCc3ccccc3C2)ccn1 [Compound 234] | < 100 nM
Cc1cc2ncc(C(=O)NC[C@H](O)CN3CCc4ccccc4C3)c(C)n2n1 [Compound 275] | 101 to 1000 nM
O=C(NC[C@H](O)CN1CCc2ccccc2C1)c1cc(NC2CN(CC(F)(F)F)C2)ncn1 [Compound 282] | < 100 nM
O=C(NC[C@H](O)CN1CCc2ccccc2C1)c1cc(OC2CCNCC2)ncn1 [Compound 258] | < 100 nM

SMILES | IC50
O=C(NC[C@H](O)CN1CCc2ccccc2C1)c1cc2ccccc2[nH]1 [Compound 269] | < 100 nM
CC(C)N1CCC(Oc2cccc(C(=O)NCC(O)CN3CCc4ccccc4C3)c2)C1 (stereo not drawn) [Compound 135] | < 100 nM
O=C(NC[C@H](O)CN1CCc2ccccc2C1)c1cccc(NC2CCN(CC(F)(F)F)CC2)c1 [Compound 217] | < 100 nM
COc1ccc(NC2CCOCC2)cc1C(=O)NCC(O)CN1CCc2ccccc2C1 (stereo not drawn) [Compound 77] | < 100 nM
CN(c1cc(C(=O)NC[C@H](O)CN2CCc3ccccc3C2)ccn1)C1CCOCC1 [Compound 324] | < 100 nM
CC(=O)N1CC(Nc2cc(C(=O)NC[C@H](O)CN3CCc4ccccc4C3)ccn2)C1 [Compound 279] | < 100 nM
O=C(NC[C@H](O)CN1CCc2ccccc2C1)c1cc(NC2CCOC2)ncn1 (stereo partly drawn) [Compound 230] | < 100 nM
Cn1ccnc1C(=O)NCC(O)CN1CCc2ccccc2C1 (stereo not drawn) [Compound 171] | < 100 nM
O=C(NCC(O)CN1CCc2ccccc2C1)c1cccc(NC2CCOC2)c1 (stereo not drawn) [Compound 45, N-(3-(3,4-dihydroisoquinolin-2(1H)-yl)-2-hydroxypropyl)-3-((tetrahydrofuran-3-yl)amino)benzamide] | < 100 nM
O=C(NC[C@H](O)CN1CCc2ccccc2C1)c1csc2ccccc12 [Compound 248] | < 100 nM
O=C(NCC(O)CN1CCc2ccccc2C1)c1cccc(-c2ccncc2)c1 (stereo not drawn) [Compound 9, N-(3-(3,4-dihydroisoquinolin-2(1H)-yl)-2-hydroxypropyl)-3-(pyridin-4-yl)benzamide] | < 100 nM
O=C(NC[C@H](O)CN1CCc2ccccc2C1)c1ccnc(NC2CCCCC2)c1 [Compound 335] | < 100 nM
O=C(NC[C@H](O)CN1CCc2ccccc2C1)c1cccc2c1OCCO2 [Compound 249] | < 100 nM
O=C(NC[C@H](O)CN1CCc2ccccc2C1)c1ccnc(NCc2cccnc2)c1 [Compound 190] | < 100 nM
O=C(NC[C@H](O)CN1CCc2ccccc2C1)c1cc2cccc(Cl)c2[nH]1 [Compound 276] | < 100 nM
O=C(NCC(O)CN1CCc2ccccc2C1)c1ccn[nH]1 (stereo not drawn) [Compound 148] | 101 to 1000 nM
O=C(NC[C@H](O)CN1CCc2ccccc2C1)c1ccc2c(c1)OCO2 [Compound 244] | < 100 nM
O=C(NCC(O)CN1CCc2ccccc2C1)c1cccc(NC2CCOCC2)c1 (stereo not drawn) [Compound 16, N-(3-(3,4-dihydroisoquinolin-2(1H)-yl)-2-hydroxypropyl)-3-((tetrahydro-2H-pyran-4-yl)amino)benzamide] | < 100 nM
O=C(NC[C@H](O)CN1CCc2ccccc2C1)c1ccnc(NC2CCOCC2)c1 [Compound 192] | < 100 nM
CN(c1cc(C(=O)NC[C@H](O)CN2CCc3ccccc3C2)ncn1)C1CCOCC1 [Compound 261] | < 100 nM
O=C(NCC(O)CN1CCc2ccccc2C1)c1ccc(OC2CCN(CC(F)(F)F)CC2)cc1 (stereo not drawn) [Compound 109] | < 100 nM
O=C(NC[C@H](O)CN1CCc2ccccc2C1)c1ccnc(NC2CCNCC2)c1 [Compound 200] | < 100 nM
O=C(NCC(O)CN1CCc2ccccc2C1)c1cccc(N2CCNCC2)c1 (stereo not drawn) [Compound 35, N-(3-(3,4-dihydroisoquinolin-2(1H)-yl)-2-hydroxypropyl)-3-(piperazin-1-yl)benzamide] | < 100 nM
O=C(NCC(O)CN1CCc2ccccc2C1)c1ccc(CN2CCNCC2)cc1 (stereo not drawn) [Compound 143] | < 100 nM
O=C(NC[C@H](O)CN1CCc2ccccc2C1)c1ccnc(NCCNCC(F)(F)F)c1 [Compound 316] | < 100 nM
